Experimental data: patent US10829478B2, “5-[3-[piperazin-1-yl]-3-oxo-propyl]-imidazolidine-2,4-dione derivatives as ADAMTS 4 and 5 inhibitors for treating e.g. osteoarthritis” (Galapagos NV, priority 2016, dated 2020)
Where two headings read alike, the source gives them in different places.

Key:
human MMP14 = human MMP14 (Homo sapiens (Human), UniProt P50281); experiment: hMMP14 assay (390 MMP FRET Substrate I); type: biochemical; settings: human MMP14 (Biomol), read-out: hMMP-14 potency IC50
Experimental: The basis for the assay is the cleavage of the substrate 390 MMP FRET Substrate I (Anaspec Cat #AS-27076) by human MMP14 (Biomol, Cat #SE-259).
The reaction is initiated by adding to the assay plate 390 MMP FRET Substrate I (10 μL, 2.5 μM) in the same buffer.
Finally, the fluorescence is read on the Envision (Perkin Elmer) after an incubation of 60 min at room temperature (Excitation 485 nm, Emission 530).

human ADAMTS6 = human ADAMTS6 (Homo sapiens (Human), UniProt Q9UKP5); experiment: hADAMTS-6 fluorescent based protease assay (520 MMP FRET substrate XII); type: biochemical; settings: 37° C. for 2 h; read-out: hADAMTS-6 potency IC50
Experimental: The IC50 value for test compounds can be determined in a fluorescent based protease assay.
The substrate contains sequence Arg-Pro-Lys-Pro-Tyr-Ala-Nva-Trp-Met-Lys (SEQ ID NO: 7) with attached a fluorescent probe and a quencher. Without ADAMTS6, the emission of the probe is quenched. If the substrate is cleaved by ADAMTS6, the emission of the probe is not quenched anymore. Inhibition of ADAMTS6 activity, will result in a decrease of the signal.
To perform the assay, 4 μL of a dilution series of compound in water, starting from 20 μM highest concentration, ⅕ dilution, is added to the wells. 2 ng ADAMTS6 enzyme is diluted in 25 mM Tris pH8.0, 0.05% CHAPS, 2.5 mM CaCl2 in a total volume of 26 μL (final concentration 0.73 nM). The reaction is started by addition of 10 μL of 1 μM 520 MMP FRET Substrate XII (final concentration, diluted in same buffer as described above) and the mixture is incubated at 37° C. for 2 h. […] After this incubation, cleavage of the substrate is measured using the Envision (Perkin Elmer, exc485/em530).

human TACE = human TACE (Homo sapiens (Human), UniProt P78536); experiment: biochemical
Experimental: Finally, the fluorescence is read on the Envision (Perkin Elmer) after an incubation of 75 min at room temperature (Excitation 485 nm, Emission 530).

human MMP13 [1] = target: T1, human MMP13 (Homo sapiens (Human), UniProt P45452); experiment: hMMP13 assay, Protocol 1 (390 MMP FRET Substrate I, Chemicon enzyme); type: biochemical; settings: Protocol 1, human MMP13 (Chemicon), read-out: hMMP-13 potency IC50
Experimental: (§1) Human MMP13 is preactivated by incubated the enzyme in the same buffer complemented with 1 mM freshly prepared p-Aminophenylmercuric acetate (AMPA) for 1 h at 37° C.

human ADAMTS-5 = human ADAMTS-5 (Homo sapiens (Human), UniProt Q9UNA0); experiment: hADAMTS-5 TBIS-1 cleavage assay, Protocol 3; type: biochemical; settings: 90 min at 37° C., read-out: hADAMTS-5 potency IC50
Experimental: The reaction is initiated by adding to the assay plate TBIS-1 (10 μL, 4.5 μM, Anaspec) in the same buffer.
Finally, the fluorescence is read on the Envision (Perkin Elmer) after an incubation of 90 min at 37° C. (Excitation 485 nm, emission 530).

human ADAMTS4 = human ADAMTS4 (Homo sapiens (Human), UniProt O75173); experiment: hADAMTS-4 TBIS-1 cleavage assay, Protocol 2; type: biochemical
human MMP13 [2] = target: T1, human MMP13; experiment: hMMP13 assay, Protocol 2 (390 MMP FRET Substrate I, Enzo enzyme); type: biochemical; settings: Protocol 2, human MMP13 (Enzo Life Sciences), read-out: hMMP-13 potency IC50
Experimental: as §1

[3] = Protocol 2, 180 min at 37° C., read-out: ADAMTS4 potency IC50

human ADAMTS-5, sequence (Q9UNA0 262-930): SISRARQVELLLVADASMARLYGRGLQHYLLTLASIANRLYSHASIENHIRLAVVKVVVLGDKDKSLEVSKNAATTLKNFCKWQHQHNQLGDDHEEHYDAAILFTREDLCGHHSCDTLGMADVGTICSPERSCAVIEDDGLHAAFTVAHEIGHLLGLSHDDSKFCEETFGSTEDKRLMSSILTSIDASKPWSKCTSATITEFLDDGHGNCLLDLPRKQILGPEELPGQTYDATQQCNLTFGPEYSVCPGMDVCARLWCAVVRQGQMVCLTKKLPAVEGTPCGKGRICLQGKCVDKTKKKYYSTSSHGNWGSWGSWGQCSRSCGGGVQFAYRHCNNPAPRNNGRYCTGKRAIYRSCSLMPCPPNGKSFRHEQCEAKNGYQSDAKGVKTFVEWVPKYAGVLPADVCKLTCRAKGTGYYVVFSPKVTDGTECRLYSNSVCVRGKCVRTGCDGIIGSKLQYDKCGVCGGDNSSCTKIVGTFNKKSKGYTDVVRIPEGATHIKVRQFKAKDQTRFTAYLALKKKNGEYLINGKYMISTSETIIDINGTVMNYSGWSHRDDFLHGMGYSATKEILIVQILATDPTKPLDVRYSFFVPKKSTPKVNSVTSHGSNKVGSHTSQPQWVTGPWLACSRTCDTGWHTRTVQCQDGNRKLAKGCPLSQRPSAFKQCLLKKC
human ADAMTS4, sequence (O75173 213-837): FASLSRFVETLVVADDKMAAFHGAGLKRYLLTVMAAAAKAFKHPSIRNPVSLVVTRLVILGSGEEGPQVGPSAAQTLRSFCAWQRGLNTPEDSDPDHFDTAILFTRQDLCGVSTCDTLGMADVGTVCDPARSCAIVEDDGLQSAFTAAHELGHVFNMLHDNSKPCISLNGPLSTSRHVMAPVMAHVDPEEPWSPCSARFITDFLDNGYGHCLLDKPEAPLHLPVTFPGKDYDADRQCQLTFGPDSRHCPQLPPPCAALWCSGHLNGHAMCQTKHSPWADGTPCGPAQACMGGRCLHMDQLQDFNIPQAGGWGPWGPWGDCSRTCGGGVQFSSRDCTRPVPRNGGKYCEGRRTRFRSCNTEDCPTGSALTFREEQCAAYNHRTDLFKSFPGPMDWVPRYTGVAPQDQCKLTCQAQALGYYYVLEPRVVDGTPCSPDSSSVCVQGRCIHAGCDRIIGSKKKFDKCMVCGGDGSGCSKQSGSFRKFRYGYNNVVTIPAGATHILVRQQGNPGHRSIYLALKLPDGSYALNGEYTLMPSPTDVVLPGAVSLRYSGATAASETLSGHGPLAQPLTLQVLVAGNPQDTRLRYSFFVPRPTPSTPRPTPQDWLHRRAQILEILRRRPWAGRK
human TACE, sequence (P78536 215-671): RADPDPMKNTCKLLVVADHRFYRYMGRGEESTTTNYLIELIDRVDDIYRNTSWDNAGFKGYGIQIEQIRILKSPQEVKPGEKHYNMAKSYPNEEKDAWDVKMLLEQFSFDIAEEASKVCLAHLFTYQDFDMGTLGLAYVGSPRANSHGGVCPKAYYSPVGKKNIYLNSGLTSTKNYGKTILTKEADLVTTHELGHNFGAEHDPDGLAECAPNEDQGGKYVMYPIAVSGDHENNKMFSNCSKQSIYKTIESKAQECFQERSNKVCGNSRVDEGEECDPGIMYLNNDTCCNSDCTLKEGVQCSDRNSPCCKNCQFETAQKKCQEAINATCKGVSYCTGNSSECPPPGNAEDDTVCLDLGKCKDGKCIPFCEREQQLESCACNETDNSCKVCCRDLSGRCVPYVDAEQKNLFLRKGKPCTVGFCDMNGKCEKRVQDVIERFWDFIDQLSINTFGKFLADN
human ADAMTS6, sequence (Q9UKP5 other isoform, or with tags, fused parts or gaps): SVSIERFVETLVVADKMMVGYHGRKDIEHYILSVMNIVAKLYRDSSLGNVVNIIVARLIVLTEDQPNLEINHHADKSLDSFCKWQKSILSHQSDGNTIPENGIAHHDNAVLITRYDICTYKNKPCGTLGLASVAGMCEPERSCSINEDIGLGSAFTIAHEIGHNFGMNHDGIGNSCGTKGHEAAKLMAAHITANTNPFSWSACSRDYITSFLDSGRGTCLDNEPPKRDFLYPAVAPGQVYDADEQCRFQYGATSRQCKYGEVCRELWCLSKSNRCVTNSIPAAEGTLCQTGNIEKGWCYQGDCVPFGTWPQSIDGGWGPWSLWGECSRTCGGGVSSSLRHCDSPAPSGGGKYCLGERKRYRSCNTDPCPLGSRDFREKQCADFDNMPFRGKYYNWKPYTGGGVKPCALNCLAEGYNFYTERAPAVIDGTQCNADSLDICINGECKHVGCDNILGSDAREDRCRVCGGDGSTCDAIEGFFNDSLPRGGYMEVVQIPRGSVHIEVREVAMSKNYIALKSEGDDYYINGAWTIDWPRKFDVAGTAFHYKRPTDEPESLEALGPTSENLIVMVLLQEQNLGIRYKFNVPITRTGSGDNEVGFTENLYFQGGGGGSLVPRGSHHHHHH

Row | Structure (SMILES) | IC50 (human MMP14) [nM] | IC50 (human ADAMTS6) [nM] | IC50 (human TACE) [nM] | IC50 (human MMP13 [1]) [nM] | IC50 (human ADAMTS-5) [nM] | IC50 (human ADAMTS4) [nM] | IC50 (human MMP13 [2]) [nM] | IC50 (human ADAMTS4; [3]) [nM]
1 | COCC1(CC(C)C(=O)N2CCN(c3ccc(Cl)c(OC)c3)[C@@H](C)C2)NC(=O)NC1=O (mixture of isomers) [Cpd 47, 5-[3-[(3S)-4-(4-chloro-3-methoxy-phenyl)-3-methyl-piperazin-1-yl]-2-methyl-3-oxo-propyl]-5-(methoxymethyl)imidazolidine-2,4-dione] | > 100 | 0.001 to 25 | > 100 | > 100 | 25 to 50 | 25 to 50 | – | –
2 | CCc1cc(N2CCN(C(=O)[C@@H](C)C[C@@]3(COC)NC(=O)NC3=O)C[C@@H]2C)cc(OC)c1Cl (mixture of isomers) [Cpd 117, 5-[3-[(3S)-4-(4-chloro-3-ethyl-5-methoxy-phenyl)-3-methyl-piperazin-1-yl]-2-methyl-3-oxo-propyl]-5-(methoxymethyl)imidazolidine-2,4-dione] | > 100 | 0.001 to 25 | > 100 | – | 50 to 100 | – | > 100 | > 100
3 | COC[C@]1(C[C@H](C)C(=O)N2CCN(c3cc(F)c(Cl)c(OC)c3)[C@@H](C)C2)NC(=O)NC1=O (mixture of isomers) [Cpd 121, 5-[3-[(3S)-4-(4-chloro-3-fluoro-5-methoxy-phenyl)-3-methyl-piperazin-1-yl]-2-methyl-3-oxo-propyl]-5-(methoxymethyl)imidazolidine-2,4-dione] | > 100 | 0.001 to 25 | > 100 | – | 25 to 50 | 50 to 100 | > 100 | –
4 | COc1cc(N2CCN(C(=O)C(C)CC3(C)NC(=O)NC3=O)C[C@@H]2C)cc(C)c1Cl (mixture of isomers) [Cpd 125, 5-[3-[(3S)-4-(4-chloro-3-methoxy-5-methyl-phenyl)-3-methyl-piperazin-1-yl]-2-methyl-3-oxo-propyl]-5-methyl-imidazolidine-2,4-dione] | > 100 | 0.001 to 25 | > 100 | – | 25 to 50 | 50 to 100 | > 100 | –
5 | COc1cc(N2CCN(C(=O)[C@@H](C)C[C@H]3NC(=O)NC3=O)CC2)cc(F)c1F (stereo in doubt) [Cpd 51, 5-[3-[4-(3,4-difluoro-5-methoxy-phenyl)piperazin-1-yl]-2-methyl-3-oxo-propyl]imidazolidine-2,4-dione] | > 100 | 0.001 to 25 | > 100 | – | > 100 | – | > 100 | > 100
6 | COc1cncc(N2CCN(C(=O)[C@@H](C)C[C@@]3(C4CC4)NC(=O)NC3=O)C[C@@H]2C)c1 (stereo in doubt) [Cpd 64, 5-cyclopropyl-5-[3-[(3 S)-4-(5-methoxy-3-pyridyl)-3-methyl-piperazin-1-yl]-2-methyl-3-oxo-propyl]imidazolidine-2,4-dione] | > 100 | 50 to 100 | > 100 | – | 50 to 100 | – | > 100 | > 100
7 | COc1cc(N2CCN(C(=O)[C@@H](C)C[C@@]3(C)NC(=O)NC3=O)C[C@@H]2C)cc(F)c1Cl (stereo in doubt) [Cpd 120, 5-[3-[(3S)-4-(4-chloro-3-fluoro-5-methoxy-phenyl)-3-methyl-piperazin-1-yl]-2-methyl-3-oxo-propyl]-5-methyl-imidazolidine-2,4-dione] | > 100 | 0.001 to 25 | > 100 | – | 0.001 to 25 | 50 to 100 | > 100 | –
8 | CCc1cc(N2CCN(C(=O)[C@@H](C)C[C@@]3(COC)NC(=O)NC3=O)C[C@@H]2C)ccc1Cl (stereo in doubt) [Cpd 124, 5-[3-[(3S)-4-(4-chloro-3-ethyl-phenyl)-3-methyl-piperazin-1-yl]-2-methyl-3-oxo-propyl]-5-(methoxymethyl)imidazolidine-2,4-dione] | – | 0.001 to 25 | – | – | – | – | > 100 | > 100
9 | COc1cc(N2CCN(C(=O)CCC3(C)NC(=O)NC3=O)CC2)cc(Cl)c1Cl (centres unmarked) [Cpd 48, 5-[3-[4-(3,4-dichloro-5-methoxy-phenyl)piperazin-1-yl]-3-oxo-propyl]-5-methyl-imidazolidine-2,4-dione] | > 100 | 0.001 to 25 | > 100 | > 100 | 50 to 100 | – | – | > 100
10 | COc1cc(N2CCN(C(=O)CCC3(C)NC(=O)NC3=O)CC2)cc(Cl)c1F (centres unmarked) [Cpd 50, 5-[3-[4-(3-chloro-4-fluoro-5-methoxy-phenyl)piperazin-1-yl]-3-oxo-propyl]-5-methyl-imidazolidine-2,4-dione] | – | 0.001 to 25 | > 100 | > 100 | > 100 | – | – | > 100
11 | COc1cc(N2CCN(C(=O)CC[C@@]3(C)NC(=O)NC3=O)C[C@@H]2C)ccc1Cl [Cpd 55, (5R)-5-[3-[(3 S)-4-(4-chloro-3-methoxy-phenyl)-3-methyl-piperazin-1-yl]-3-oxo-propyl]-5-methyl-imidazolidine-2,4-dione] | > 100 | 0.001 to 25 | > 100 | – | 50 to 100 | – | > 100 | > 100
12 | CC[C@]1(C[C@H](C)C(=O)N2CCN(c3cc(F)c(F)c(OC)c3)CC2)NC(=O)NC1=O [Cpd 57, (5R)-5-[(2S)-3-[4-(3,4-difluoro-5-methoxy-phenyl)piperazin-1-yl]-2-methyl-3-oxo-propyl]-5-ethyl-imidazolidine-2,4-dione] | > 100 | 0.001 to 25 | > 100 | – | 25 to 50 | 50 to 100 | > 100 | –
13 | COc1cc(Cl)c(C)cc1N1CCN(C(=O)CCC2(C)NC(=O)NC2=O)CC1 (centres unmarked) [Cpd 58, 5-[3-[4-(4-chloro-2-methoxy-5-methyl-phenyl)piperazin-1-yl]-3-oxo-propyl]-5-methyl-imidazolidine-2,4-dione] | – | 25 to 50 | > 100 | – | > 100 | – | > 100 | > 100
14 | CC(C)c1cc(N2CCN(C(=O)CC[C@@]3(C)NC(=O)NC3=O)C[C@@H]2C)ccc1Cl [Cpd 85, (5R)-5-[3-[(3 S)-4-(4-chloro-3-isopropyl-phenyl)-3-methyl-piperazin-1-yl]-3-oxo-propyl]-5-methyl-imidazolidine-2,4-dione] | – | 0.001 to 25 | – | – | – | – | > 100 | > 100
15 | CCc1cc(N2CCN(C(=O)CCC3(CCC(=O)OC(C)(C)C)NC(=O)NC3=O)C[C@@H]2C)ccc1Cl (stereo partly drawn) [Cpd 114, tert-butyl 3-[4-[3-[(3S)-4-(4-chloro-3-ethyl-phenyl)-3-methyl-piperazin-1-yl]-3-oxo-propyl]-2,5-dioxo-imidazolidin-4-yl]propanoate] | – | 0.001 to 25 | – | – | – | – | > 100 | > 100
16 | CCc1cc(N2CCN(C(=O)CCC3(CCC(=O)O)NC(=O)NC3=O)C[C@@H]2C)ccc1Cl (some centres unmarked) [Cpd 116, 3-[4-[3-[(3 S)-4-(4-chloro-3-ethyl-phenyl)-3-methyl-piperazin-1-yl]-3-oxo-propyl]-2,5-dioxo-imidazolidin-4-yl]propanoic acid] | – | 0.001 to 25 | – | – | – | – | > 100 | > 100
17 | COc1cc(N2CCN(C(=O)CC[C@H]3NC(=O)NC3=O)CC2)cc(F)c1F [Cpd 128, (5R)-5-[3-[4-(3,4-difluoro-5-methoxy-phenyl)piperazin-1-yl]-3-oxo-propyl]imidazolidine-2,4-dione] | – | 50 to 100 | > 100 | > 100 | > 100 | – | – | > 100
18 | COc1cc(N2CCN(C(=O)CC[C@H]3NC(=O)NC3=O)CC2)cc(F)c1Cl [Cpd 143, (5R)-5-[3-[4-(4-chloro-3-fluoro-5-methoxy-phenyl)piperazin-1-yl]-3-oxo-propyl]imidazolidine-2,4-dione] | – | 0.001 to 25 | > 100 | > 100 | > 100 | – | – | > 100
19 | COc1cc(N2CCN(C(=O)CC[C@H]3NC(=O)NC3=O)CC2)cc(Cl)c1Cl [Cpd 145, (5R)-5-[3-[4-(3,4-dichloro-5-methoxy-phenyl)piperazin-1-yl]-3-oxo-propyl]imidazolidine-2,4-dione] | > 100 | 0.001 to 25 | > 100 | > 100 | 50 to 100 | – | – | > 100
